Structures can show the parent of a compound that is named as a salt.
Tests used:
Target C = assay: Protein abundance, HiBit-assay system (Promega), Target C; assay type: cell-based, human; conditions: Table 6; HiBiT-modified K562 cells, 24 hours
Protocol: Compounds described herein were used to screen for effects on quantitative protein abundance using a HiBit assay system (Promega). Quantitative protein abundance was determined by measuring the protein levels of HiBit-tagged protein targets expressed in cell culture via luminescence using the Nano-Glo HiBiT Lytic Detection System, which uses a split complementation assay format to reconstitute NanoBiT enzyme to generate a luminescent signal. A protein abundance assay was developed such that endogenous protein targets could be modified with the HiBiT peptide tag and their abundance could be assessed after compound treatment. Briefly, K562 cell lines containing a HiBiT-modification were treated with various compounds described herein (e.g., compounds of Formulas (I) or (II)). After treatment for 24 hours, the protein abundance of a specific target was determined by measuring luminescence.
Cells were maintained in EIDM with 10% FBS. Before the assay, cells were diluted with […] growth media (EIDM+1% FBS media) and were seeded in a 384-well plate at a density of 10000 cells/well (for each cell line listed in Table 5). Each compound was prepared as a 10-point 3-fold serial dilution in DMSO with the top dose at a final concentration of 10 μM in the well. Unmodified K562 cells were added at the previously specified density with DMSO to serve as an assay baseline and positive control (PC) and DMSO only with the respective modified cell lines was added to the negative control (NC) columns. Final DMSO concentration was kept at or below 0.25%. Treated cell plates were placed in an incubator at 37° C. with 5% CO2 for 24 hours. After 24 hours, 25 μL of Complete HiBit Lytic reagent was added to each well at room temperature (e.g. one plate requiring 10 mL Lytic Buffer, 100 μL LgBiT Protein, 200 μL Lytic Substrate), shaken for 5 minutes at 600 RPM, then left to sit for 10 minutes for signal to stabilize before reading on a Spark Cyto plate reader (Tecan) with a 500 ms measurement time.
To determine compound effects on protein abundance of each target in Table 6, the percent response for each respective cell line was calculated at each compound concentration as follows:
For the normalized response at each concentration, a four-parameter logistical regression was fit to the data and the response was interpolated at the 50% value to determine a concentration for protein abundance at […] the untreated control.

HTT = assay: Protein abundance, HiBit-assay system (Promega), HTT; assay type: cell-based; conditions: Table 6; HiBiT-modified K562 cells, 24 hours
Source text: In some embodiments, a compound of Formula (I) or (II) or a pharmaceutically acceptable salt thereof, e.g., as described herein, modulates the expression of a target protein (e.g., HTT or MYB) in a reference cell or sample. In an embodiment, a compound of Formula (I) or (II) or a pharmaceutically acceptable salt thereof, e.g., as described herein, increases the expression of a target protein (e.g., HTT or MYB) in a reference cell or sample. In an embodiment, a compound of Formula (I) or (II) or a pharmaceutically acceptable salt thereof, e.g., as described herein, decreases the expression of a target protein (e.g., HTT or MYB) in a reference cell or sample. The effect of an exemplary compound of Formula (I) or (II) on protein abundance may be measured using a standard assay for measuring protein abundance, such as the HiBit-assay system (Promega). In this assay, percent response for each respective cell line may be as calculated at each compound concentration as follows: % response=100*(S−PC)/(NC−PC). For the normalized response at each concentration, a four-parameter logistical regression may be fit to the data and the response may be interpolated at the 50% value to determine a concentration for protein abundance at 50% (IC50) an untreated control. In an embodiment, a compound of Formula (I) or (II) or a pharmaceutically acceptable salt thereof, e.g., as described herein, has a protein abundance response less than 100 nM. In an embodiment, a compound of Formula (I) or (II) or a pharmaceutically acceptable salt thereof, e.g., as described herein, has a protein abundance response between 100-1000 nM. In an embodiment, a compound of Formula (I) or (II) or a pharmaceutically acceptable salt thereof, e.g., as described herein, has a protein abundance response greater than 1000 nM. In an embodiment, a compound of Formula (I) or (II) or a pharmaceutically acceptable salt thereof, e.g., as described herein, has a protein abundance response greater than 10 uM. In an embodiment, a compound of Formula (I) or (II) or a pharmaceutically acceptable salt thereof, e.g., as described herein, modulates the protein abundance of a target protein by about 1%, 5%, 10%, 15%, 20%, 25%, 30%, 35%, 40%, 45%, 50%, 55%, 60%, 65%, 70%, 75%, 80%, 85%, 90%, 95%, 99% or more, e.g., compared with a reference compound.

Row | SMILES | IC50 (Target C) | IC50 (HTT)
1 | Cc1cn2cc(NC(=O)c3ccc(N4CCN(C)C(C)C4)c4cc(C)oc34)cc(F)c2n1 (centres unmarked) [Compound 191] | 1 to 10 µM | –
2 | Cc1cn2cc(NC(=O)c3ccc(N4CCN5CCCC5C4)c4cc(C)oc34)cc(F)c2n1 (centres unmarked) [Compound 199] | > 10 µM | 1 to 10 µM
3 | Cc1cn2cc(NC(=O)c3ccc(N4CCNCC4)c4cn(C)nc34)cc(F)c2n1 [Compound 143, N-{8-fluoro-2-methylimidazo[1,2-a]pyridin-6-yl}-2-methyl-4-(piperazin-1-yl) indazole-7-carboxamide] | < 0.1 µM | < 0.1 µM
4 | Cc1cn2cc(NC(=O)c3ccc(N4CC5NC5C4)c4cn(C)nc34)cc(F)c2n1 (centres unmarked) [Compound 563, 4-{3,6-diazabicyclo[3.1.0]hexan-3-yl}-N-{8-fluoro-2-methylimidazo[1,2-a]pyridin-6-yl}-2-methylindazole-7-carboxamide] | 0.1 to 1 µM | 0.1 to 1 µM
5 | CCn1cc2c(N3CC[C@@H](NC)C3)ccc(C(=O)Nc3cc(Cl)c4nc(C)cn4c3)c2n1 [Compound 556, N-{8-chloro-2-methylimidazo[1,2-a]pyridin-6-yl}-2-ethyl-4-[(3R)-3-(methylamino)pyrrolidin-1-yl]indazole-7-carboxamide] | 1 to 10 µM | 1 to 10 µM
6 | Cc1cn2cc(NC(=O)c3ccc(N4CC(C)(C)NC(C)(C)C4)c4cc(C)oc34)cc(F)c2n1 [Compound 195] | 1 to 10 µM | > 10 µM
7 | Cc1cn2cc(NC(=O)c3ccc(N4CC[C@@H](NCc5cnc(Cl)nc5)C4)c4cn(C)nc34)cc(F)c2n1 [Compound 573, 4-[(3R)-3-{[(2-chloropyrimidin-5-yl)methyl]amino}pyrrolidin-1-yl]-N-{8-fluoro-2-methylimidazo[1,2-a]pyridin-6-yl}-2-methylindazole-7-carboxamide] | > 10 µM | > 10 µM
8 | CCn1cc2c(N3CCNCC3)ccc(C(=O)Nc3cn4cc(C)nc4c(Oc4ccccc4)n3)c2n1 [Compound 566, 2-ethyl-N-{2-methyl-8-phenoxyimidazo[1,2-a]pyrazin-6-yl}-4-(piperazin-1-yl) indazole-7-carboxamide] | 1 to 10 µM | 1 to 10 µM
9 | Cc1cn2cc(NC(=O)c3ccc(C4CCNCC4)c4ccoc34)cc(F)c2n1 [Compound 149] | 1 to 10 µM | 1 to 10 µM
10 | Cc1cn2cc(NC(=O)c3ccc(C4CCNCC4)c4cc(C)oc34)cc(F)c2n1 [Compound 145] | 1 to 10 µM | 1 to 10 µM
11 | Cc1cn2cc(NC(=O)c3ccc(C4CCNCC4)c4cn(C)nc34)cc(F)c2n1 [Compound 208] | 0.1 to 1 µM | 0.1 to 1 µM
12 | Cc1cn2cc(NC(=O)c3ccc(N4CC[C@@H](N5CCNCC5)C4)c4cn(C)nc34)cc(F)c2n1 [Compound 562, N-{8-fluoro-2-methylimidazo[1,2-a]pyridin-6-yl}-2-methyl-4-[(3R)-3-(piperazin-1-yl)pyrrolidin-1-yl]indazole-7-carboxamide hydrochloride] | > 10 µM | > 10 µM
13 | CCn1cc2c(N3CCC(N[C@H]4C[C@@H](O)C4)CC3)ccc(C(=O)Nc3cc(F)c4nc(C)cn4c3)c2n1 [Compound 559, 2-ethyl-N-{8-fluoro-2-methylimidazo[1,2-a]pyridin-6-yl}-4-(4-{[(1s,3s)-3-hydroxycyclobutyl]amino}piperidin-1-yl) indazole-7-carboxamide] | 0.1 to 1 µM | 0.1 to 1 µM
14 | CCn1cc2c(N3CCC(N)(CC)CC3)cc(F)c(C(=O)Nc3cc(F)c4nc(C)cn4c3)c2n1 [Compound 557, 4-(4-amino-4-ethylpiperidin-1-yl)-2-ethyl-6-fluoro-N-{8-fluoro-2-methylimidazo[1,2-a]pyridin-6-yl}indazole-7-carboxamide] | 0.1 to 1 µM | 0.1 to 1 µM
15 | CCn1cc2c(N3CCC(NC4CC4)C3)cc(F)c(C(=O)Nc3cc(F)c4nc(C)cn4c3)c2n1 (centres unmarked) [Compound 569, 4-[3-(cyclopropylamino)pyrrolidin-1-yl]-2-ethyl-6-fluoro-N-{8-fluoro-2-methylimidazo[1,2-a]pyridin-6-yl}indazole-7-carboxamide] | 1 to 10 µM | 1 to 10 µM
16 | Cc1cn2cc(NC(=O)c3ccc(N4CCC(NC(C)(C)C)CC4)c4cc(C)oc34)cc(F)c2n1 [Compound 197] | > 10 µM | > 10 µM
17 | CCn1cc2c(N3CCC(N[C@H]4C[C@H](O)C4)CC3)ccc(C(=O)Nc3cc(F)c4nc(C)cn4c3)c2n1 [Compound 560, 2-ethyl-N-{8-fluoro-2-methylimidazo[1,2-a]pyridin-6-yl}-4-(4-{[(1r,3r)-3-hydroxycyclobutyl]amino}piperidin-1-yl) indazole-7-carboxamide] | 1 to 10 µM | 1 to 10 µM
18 | Cc1cn2cc(NC(=O)c3ccc(N4C5CNCC54)c4cn(C)nc34)cc(F)c2n1 (centres unmarked) [Compound 564, 4-{3,6-diazabicyclo[3.1.0]hexan-6-yl}-N-{8-fluoro-2-methylimidazo[1,2-a]pyridin-6-yl}-2-methylindazole-7-carboxamide] | 0.1 to 1 µM | 0.1 to 1 µM

Results, then the compound that gave them:

Row | IC50 (Target C) | IC50 (HTT) | SMILES
19 | > 10 µM | 1 to 10 µM | Cc1cn2cc(NC(=O)c3ccc(N4CCNC5(CC5)C4)c4cc(C)oc34)cc(F)c2n1 [Compound 194]
20 | 1 to 10 µM | > 10 µM | Cc1cn2cc(NC(=O)c3ccc(N4CCN(C)CC4)c4cc(C)oc34)cc(F)c2n1 [Compound 189]
21 | 1 to 10 µM | 0.1 to 1 µM | Cc1cn2cc(NC(=O)c3ccc(N4CCNCC4)c4cc(C)oc34)cc(F)c2n1 [Compound 142]
22 | 1 to 10 µM | 1 to 10 µM | Cc1cn2cc(NC(=O)c3ccc(N4CCNCC4)c4nc(C)oc34)cc(F)c2n1 [Compound 140]
23 | 1 to 10 µM | 0.1 to 1 µM | Cc1cn2cc(NC(=O)c3ccc(N4CCNCC4)c4oc(C)nc34)cc(F)c2n1 [Compound 141]
24 | > 10 µM | 1 to 10 µM | Cc1cn2cc(NC(=O)c3ccc(N4CCNC(C)(C)C4)c4cc(C)oc34)cc(F)c2n1 [Compound 193]
25 | 1 to 10 µM | 0.1 to 1 µM | Cc1cn2nc(NC(=O)c3ccc(C4CCNCC4)c4cc(C)oc34)cc(C)c2n1 [Compound 118]
26 | > 10 µM | > 10 µM | Cc1cc2c(N3CCNCC3)ccc(C(=O)Nc3cc(F)c4cn(C)nc4c3)c2o1 [Compound 217]
27 | 1 to 10 µM | 1 to 10 µM | Cc1cn2nc(NC(=O)c3ccc(N4CCNCC4)c4cc(C)oc34)cc(C)c2n1 [Compound 148]
28 | 1 to 10 µM | 1 to 10 µM | CCC1CN(c2ccc(C(=O)Nc3cc(F)c4nc(C)cn4c3)c3oc(C)cc23)CCN1 (centres unmarked) [Compound 192]
29 | > 10 µM | 1 to 10 µM | Cc1cn2nc(NC(=O)c3ccc(C4CCNCC4)c4ccoc34)cc(C)c2n1 [Compound 119]
30 | 1 to 10 µM | 0.1 to 1 µM | CCNC1CCN(c2ccc(C(=O)Nc3cc(F)c4nc(C)cn4c3)c3oc(C)cc23)CC1 [Compound 196]
